Experimental findings from ChEMBL document CHEMBL3301464, “MMV Malaria Box anti-babesial screening” are described below.

SMILES strings stand for the structures.

The nature of assay [1]: (§1) MMV: Anti-babesial activity assay. Parasite pRBCs at 1% parasitemia were cultivated in 100 ul with 96-well plates at 2.5% and 5% hematocrits. The parasites were cultivated in triplicate for 4 days without replacement of the medium for each concentration of the compound. It counts as functional, Babesia bovis.
The nature of assay [2]: as §1. In kind it is functional, Babesia bigemina.
Assay [3] is described as follows: as §1. It counts as functional, Babesia equi.
A short description of assay [4]: as §1. It counts as functional, Babesia caballi.

For `COc1ccc(Nc2nc(N/N=C/c3ccc(O)cc3)nc(Nc3ccc([N+](=O)[O-])cc3)n2)cc1`, the IC50 – broadly, the concentration at which inhibition is half-maximal – is 0.081 µM in assay [1], 0.05 µM in assay [2], 15.9 µM in assay [3] and 5.09 µM in assay [4].
With `COc1cc(SC)ccc1C(=O)N1CCCC(C)C1` (centres undefined), the IC50 was 19.4 µM in assay [1], above 25 µM in assay [2], 5.79 µM in assay [3] and 12.3 µM in assay [4].
As to `COc1cccc(-c2nn(C)c3sc(C(=O)NCCN4CCN(c5ccccc5F)CC4)cc23)c1`, the IC50 turned out to be 2.06 µM in assay [1], 10 µM in assay [2], 5.93 µM in assay [3] and 6.8 µM in assay [4].
Turning to `CCN(CC)CCNc1ncnc2c1[nH]c1ccc(Cl)cc12`, the IC50 was determined as 17.6 µM in assay [1], 16.2 µM in assay [2], 3.42 µM in assay [3] and 2.64 µM in assay [4].
Turning to `O=C(NCC1Cc2cccc(-c3ccncc3)c2O1)c1csc2c1CCCC2` (centres undefined), the 50% inhibitory concentration (IC50) in assay [1] worked out at 7.18 µM; in assay [2] it was 1 µM; in assay [3], 3.7 µM; in assay [4], 15.3 µM.
In the same order, the values of `COc1ccc(CCn2c(=N)c(C(=O)NCc3cccnc3)cc3c(=O)n4cccc(C)c4nc32)cc1` are 0.13 µM, 0.052 µM, 0.41 µM and 4.27 µM.
The matching figures for `COc1cc(C(=O)ON=C(N)Cc2cccc3ccccc23)cc(OC)c1OC`: 13.3 µM, 12.5 µM, 10.1 µM and 5.3 µM.
In the same order, the values of `c1ccc(CNc2nc(Nc3ccccc3)nc3ccccc23)cc1` are 4.06 µM, 10 µM, 2.12 µM and 3.73 µM.
For `CC(C)(C)c1ccc(C2CC3=Nc4ccccc4N(C(=O)c4ccccc4Cl)C(c4ccc(F)cc4)C3=C(O)C2)cc1` (centres undefined), the half-inhibitory concentration (IC50) in assay [1] worked out at 21.4 µM; in assay [2], 12 µM; in assay [3], 15.2 µM; in assay [4], 3.73 µM.
In the same order, the values of `CCOc1cc(Cl)c(C(C)NC(=O)c2ccccc2)cc1OCC` (centres undefined) are above 25 µM, 4.19 µM, 10 µM and 12.4 µM.
The matching figures for `Cc1ccc(C2CC(C(F)(F)F)n3nc(C(=O)N4CCN(C(c5ccccc5)c5ccccc5)CC4)cc3N2)cc1` (centres undefined): 9.55 µM, 15.9 µM, 12.6 µM and 0.98 µM.
Regarding `Oc1ccc(Br)cc1CN1CCN(Cc2cccc(F)c2)CC1`, the IC50 in assay [1] was 17.3 µM; in assay [2] it was above 25 µM; in assay [3], 13 µM; in assay [4], 14.3 µM.
For `Nc1ccc(-c2nc3cc(Oc4ccc(Oc5ccc6[nH]c(-c7ccc(N)cc7)nc6c5)cc4)ccc3[nH]2)cc1`, the IC50 in assay [1] amounted to 10 µM; in assay [2] it was 18.9 µM; in assay [3], 3.86 µM; in assay [4], 4.52 µM.
The matching figures for `COc1ccc(OC)c(C2C3=C(CC(C)(C)CC3=O)N(c3ccc(Cl)c(Cl)c3)C3=C2C(=O)CC(C)(C)C3)c1`: 10 µM, 17.8 µM, 10.7 µM and 0.14 µM.
The matching figures for `CCOc1ccccc1NC(=O)CN1CCN(C(=O)c2ccco2)CC1`: 25 µM, 17.5 µM, 10.3 µM and 3.81 µM.
Regarding `O=C(Nc1cccc(C(F)(F)F)c1)c1cc(Cl)ccc1O`, the half-maximal inhibitory concentration (IC50) in assay [1] was found to be 0.82 µM; in assay [2] it was 3.71 µM; in assay [3], 5.1 µM; in assay [4] it was 5.21 µM.
As to `O=C(NCCCN1CCC(N2CCCCC2)CC1)C1=Cc2cc(Br)ccc2OC1`, the IC50 came out at 1 µM in assay [1], 0.08 µM in assay [2], 5.09 µM in assay [3] and 4.13 µM in assay [4].
In the same order, the values of `OC(CNC1CCCCC1)Cn1c2ccccc2c2ccccc21` (centres undefined) are 17.3 µM, 17.3 µM, 17.3 µM and 13.8 µM.
In the same order, the values of `CC(=O)c1ccc(NC(=O)CSc2nc(-c3ccccc3Cl)ns2)cc1` are 0.86 µM, 10 µM, 0.65 µM and 3.34 µM.
For the compound `CCOc1ccc(Nc2c3ccccc3nc3ccccc23)cc1`, the 50% inhibitory concentration (IC50) in assay [1] amounted to 0.72 µM; in assay [2], 0.1 µM; in assay [3], 4.52 µM; in assay [4], 7.54 µM.
In the case of `CCOc1ccc2nc(C)cc(Nc3ccc(N(C)C)cc3)c2c1`, the IC50 in assay [1] was 0.056 µM; in assay [2], 0.065 µM; in assay [3], 15.5 µM; in assay [4], 6.08 µM.
In the same order, the values of `Cn1c(=O)n(C)c2cc(CNCCNc3ccnc4cc(Cl)ccc34)ccc21` are 0.071 µM, 0.081 µM, 0.1 µM and 0.489 µM.
The matching figures for `CC(C)CCNCC(O)Cn1c2ccccc2c2ccccc21` (centres undefined): 0.081 µM, 0.76 µM, 0.84 µM and 0.38 µM.
In the same order, the values of `O=C(CCl)NCCOc1ccc(Cl)cc1Cl` are 16.5 µM, 13.1 µM, 16.5 µM and 12 µM.
Turning to `Cc1c(C)n(CC(O)CNC2CCCCC2C)c2ccccc12` (centres undefined), the half-inhibitory concentration (IC50) in assay [1] was found to be 0.1 µM; in assay [2], 4.09 µM; in assay [3], 4.76 µM; in assay [4] it was 2.49 µM.
The matching figures for `CCC(O)c1ccc(Br)cc1NC(=O)c1cccc(Cl)c1` (centres undefined): above 25 µM, 7.38 µM, above 25 µM and 11.4 µM.
In the same order, the values of `Cc1cc(Nc2cccc(F)c2)nc(NCc2ccccc2)n1` are 10 µM, 0.093 µM, 5.06 µM and 0.1 µM.
For `Clc1ccc2c(N3CCCC3)ccnc2c1`, the IC50 was 7.09 µM in assay [1], 9.15 µM in assay [2], 8.83 µM in assay [3] and 6.86 µM in assay [4].
The matching figures for `Cc1cc(NC(=O)c2ccc(-c3ccccc3)cc2)no1`: 0.24 µM, 8.54 µM, 12.4 µM and 0.076 µM.
Regarding `Cc1ccc(F)cc1NC(=O)c1cc(Cl)ccc1Nc1ccccc1`, the half-inhibitory concentration (IC50) in assay [1] was 18.6 µM; in assay [2] it was 10.2 µM; in assay [3] it was above 25 µM; in assay [4], 2.56 µM.
The matching figures for `CCOC(=O)c1c(C)n(-c2ccccc2)c2ccc(OC(=O)c3cc(OC)c(OC)c(OC)c3)cc12`: 18.6 µM, 12.6 µM, 16.5 µM and 5.9 µM.
On to `CCc1ccc(CNCC(O)c2ccccc2)cc1` (centres undefined), for which the IC50 was 11.1 µM in assay [1], 7.65 µM in assay [2], 15.2 µM in assay [3] and 4.13 µM in assay [4].
In the same order, the values of `CCCCc1c(C)nc2c(OC)cccc2c1O` are 10 µM, 15.3 µM, 14 µM and 5.64 µM.
Consider `O=C(Nc1ccc(-c2nc3cc4ccccc4cc3[nH]2)cc1)c1cccc(Br)c1`, for which the IC50 in assay [1] was determined as 7 µM; in assay [2], 4.91 µM; in assay [3] it was 10 µM; in assay [4], 9.03 µM.
For the compound `O=C(NNc1cc(N2CCCC2)nc(N2CCCC2)n1)c1ccccc1`, the IC50 in assay [1] was determined as 4.58 µM; in assay [2] it was 13.9 µM; in assay [3], 5.3 µM; in assay [4], 5.5 µM.
As to `OC(CNC1CCCCC1)Cn1c2ccc(I)cc2c2cc(I)ccc21` (centres undefined), the 50% inhibitory concentration (IC50) is 1.3 µM in assay [1], 16.5 µM in assay [2], 2.17 µM in assay [3] and 3.73 µM in assay [4].
`CCCC(c1nnnn1C1CCCCC1)N1CCN(C(=O)c2ccco2)CC1` (centres undefined): the IC50 was determined as 0.059 µM in assay [1], 0.083 µM in assay [2], 0.219 µM in assay [3] and 0.13 µM in assay [4].
In the same order, the values of `Oc1c2c(nc3cc(-c4ccccc4)nn13)CCCC2` are 5.5 µM, above 25 µM, 0.44 µM and 1.29 µM.
As to `CCOC(=O)C1=C(C)N=c2sc(=Cc3cc(Cl)ccc3O)c(=O)n2C1c1ccc(OC)cc1` (centres undefined), the IC50 in assay [1] turned out to be 18.1 µM; in assay [2], 14.1 µM; in assay [3] it was 14.6 µM; in assay [4] it was 15.9 µM.
Regarding `COc1ccc(C2C(C(=O)Nc3cccc(OC)c3)c3ccccc3C(=O)N2C2CCCCC2)cc1` (centres undefined), the concentration for half-maximal inhibition (IC50) in assay [1] amounted to 10 µM; in assay [2] it was 0.22 µM; in assay [3], 12.5 µM; in assay [4], 1 µM.
In the same order, the values of `O=C(Nc1ccc(CN2CCOCC2)cc1)c1ccc(-c2cc(Cl)ccc2Cl)o1` are 25 µM, 10 µM, 10 µM and 0.069 µM.
As to `Cc1cc(=O)oc2c1ccc1oc(C(=O)c3ccccc3)c(C)c12`, the IC50 in assay [1] was 10.1 µM; in assay [2], 11.9 µM; in assay [3], 12.1 µM; in assay [4] it was 5.69 µM.
`COc1ccc(N2CCN(C(CNC(=O)C3CCCCC3)c3ccc4c(c3)OCO4)CC2)cc1` (centres undefined): the IC50 in assay [1] was 24.9 µM; in assay [2], 7.67 µM; in assay [3], 13 µM; in assay [4] it was 7.67 µM.
For the compound `N=c1n(CCN2CCCCC2)c2ccccc2n1CC(=O)c1ccc(Cl)c(Cl)c1`, the half-maximal inhibitory concentration (IC50) came to 0.077 µM in assay [1], 0.066 µM in assay [2], 15.9 µM in assay [3] and 3.73 µM in assay [4].
The matching figures for `CC(Oc1ccc(NC(=O)c2cccs2)cc1)C(=O)c1ccc(Cl)cc1` (centres undefined): 0.1 µM, 0.081 µM, 13.3 µM and 0.29 µM.
With `Nc1ccn([C@@H]2O[C@H](CO)[C@@H](O)[C@H]2O)c(=O)n1` [CYTIDINE], the 50% inhibitory concentration (IC50) came to 7.31 µM in assay [1], 19.1 µM in assay [2], 14.1 µM in assay [3] and 4.27 µM in assay [4].
